# Data as given in patent publication US7544701B2, “Sulfonyldihydrobenzimidazolone compounds as 5-hydroxytryptamine-6 ligands” (Wyeth, priority 2003, dated 2009).
# Biological target: T1, human cloned 5-HT6 receptors (Homo sapiens, UniProt P50406)
# T1 construct: expressed in transfected cells; host or cells: Hela cells
# Test: 5-HT6 binding affinity ([3H]-LSD displacement, membranes of Hela cells expressing human cloned 5-HT6 receptors)
# Conditions: [3H]-LSD 3.0 nM, 120 min, room temperature, Hela cell membranes
# Experimental: The affinity of test compounds for the serotonin 5-HT6 receptor is evaluated in the following manner. Cultured Hela cells expressing human cloned 5-HT6 receptors are harvested and centrifuged at low speed (1,000×g) for 10.0 min to remove the culture media. The harvested cells are suspended in half volume of fresh physiological phosphate buffered saline solution and recentrifuged at the same speed. This operation is repeated. The collected cells are then homogenized in ten volumes of 50 mM Tris.HCl (pH 7.4) and 0.5 mM EDTA. The homogenate is centrifuged at 40,000×g for 30.0 min and the precipitate is collected. The obtained pellet is resuspended in 10 volumes of Tris.HCl buffer and recentrifuged at the same speed. The final pellet is suspended in a small volume of Tris.HCl buffer and the tissue protein content is determined in aliquots of 10-25 μl volumes. Bovine Serum Albumin is used as the standard in the protein determination according to the method described in Lowry et al., J. Biol. Chem., 193:265 (1951). The volume of the suspended cell membranes is adjusted to give a tissue protein concentration of 1.0 mg/ml of suspension. The prepared membrane suspension (10 times concentrated) is aliquoted in 1.0 ml volumes and stored at −70° C. until used in subsequent binding experiments.
# Binding experiments are performed in a 96 well microtiter plate format, in a total volume of 200 μl. […] The test compounds are added in 20.0 μl volume.
# The reaction is allowed to proceed in the dark for 120 min at room temperature, at which time, the bound ligand-receptor complex is filtered off on a 96 well unifilter with a Packard Filtermate® 196 Harvester. The bound complex caught on the filter disk is allowed to air dry and the radioactivity is measured in a Packard TopCount® equipped with six photomultiplier detectors, after the addition of 40.0 μl Microscint®-20 scintillant to each shallow well. The unifilter plate is heat-sealed and counted in a PackardTopCount® with a tritium efficiency of 31.0%.
# Binding in the presence of varying concentrations of test compound is expressed as a percentage of specific binding in the absence of test compound. The results are plotted as log % bound versus log concentration of test compound. […] A linear regression line of data points is plotted, from which the IC50 value is determined and the Ki value is determined based upon the following equation: Ki=IC50/(1+L/KD) where L is the concentration of the radioactive ligand used and KD is the dissociation constant of the ligand for the receptor, both expressed in nM.
# T1 sequence (P50406 whole entry): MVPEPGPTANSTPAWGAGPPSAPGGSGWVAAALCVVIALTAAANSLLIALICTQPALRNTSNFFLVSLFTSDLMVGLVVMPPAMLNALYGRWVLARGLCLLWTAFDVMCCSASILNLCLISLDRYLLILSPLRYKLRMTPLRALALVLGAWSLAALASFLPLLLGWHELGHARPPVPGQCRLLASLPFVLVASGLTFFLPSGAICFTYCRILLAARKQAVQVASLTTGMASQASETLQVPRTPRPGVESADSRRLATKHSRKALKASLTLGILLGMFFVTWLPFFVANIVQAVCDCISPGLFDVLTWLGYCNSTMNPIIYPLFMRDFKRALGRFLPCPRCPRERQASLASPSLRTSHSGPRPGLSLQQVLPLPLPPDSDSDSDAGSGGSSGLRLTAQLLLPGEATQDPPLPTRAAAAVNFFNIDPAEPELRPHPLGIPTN
row,Ki [µM],Compound
1,0.009,"O=c1n(C2=CCNCC2)c2ccccc2n1S(=O)(=O)c1cc(Br)c(Cl)s1 [Example 46, 1-[(4-bromo-5-chlorothien-2-yl)sulfonyl]-3-(1,2,3,6-tetrahydropyridin-4-yl)-1,3-dihydro-2H-benzimidazol-2-one]"
2,0.133,"Cc1nc(S(=O)(=O)n2c(=O)n(C3=CCNCC3)c3ccccc32)cn1C [Example 52, 1-[(1,2-dimethyl-1H-imidazol-4-yl)sulfonyl]-3-(1,2,3,6-tetrahydropyridin-4-yl)-1,3-dihydro-2H-benzimidazol-2-one]"
3,0.026,"NCCn1c(=O)n(S(=O)(=O)c2ccc(Br)s2)c2ccccc21 [Example 20, 1-(2-aminoethyl)-3-[(5-bromothien-2-yl)sulfonyl]-1,3-dihydro-2H-benzimidazol-2-one]"
4,0.002,"O=c1n(C2=CCNCC2)c2ccccc2n1S(=O)(=O)c1c(Cl)nc2sccn12 [Example 49, 1-[(6-chloroimidazo[2,1-b][1,3]thiazol-5-yl)sulfonyl]-3-(1,2,3,6-tetrahydropyridin-4-yl)-1,3-dihydro-2H-benzimidazol-2-one]"
5,0.034,"O=c1n(C2CCNCC2)c2ccccc2n1S(=O)(=O)c1cc(Cl)sc1Cl [Example 26, 1-[(2,5-dichlorothien-3-yl)sulfonyl]-3-piperidin-4-yl-1,3-dihydro-2H-benzimidazol-2-one]"
6,0.027,"O=c1n(C2CCNCC2)c2ccccc2n1S(=O)(=O)c1cc(Br)c(Br)s1 [Example 27, 1-[(4,5-dibromothien-2-yl)sulfonyl]-3-piperidin-4-yl-1,3-dihydro-2H-benzimidazol-2-one]"
7,0.08,"Cc1c(S(=O)(=O)n2c(=O)n(C3CCNCC3)c3ccccc32)sc2ccc(Cl)cc12 [Example 31, 1-[(5-chloro-3-methyl-1-benzothien-2-yl)sulfonyl]-3-piperidin-4-yl-1,3-dihydro-2H-benzimidazol-2-one]"
8,0.023,"NCCn1c(=O)n(S(=O)(=O)c2ccc3ccccc3c2)c2ccccc21 [Example 19, 1-(2-aminoethyl)-3-(2-naphthylsulfonyl)-1,3-dihydro-2H-benzimidazol-2-one]"
9,0.005,"O=c1n(C2=CCNCC2)c2ccccc2n1S(=O)(=O)c1ccc(Cl)s1 [Example 40, 1-[(5-chlorothien-2-yl)sulfonyl]-3-(1,2,3,6-tetrahydropyridin-4-yl)-1,3-dihydro-2H-benzimidazol-2-one]"
10,0.017,"CN(C)CCn1c(=O)n(S(=O)(=O)c2ccc3ccccc3c2)c2ccccc21 [Example 6, 1-[2-(dimethylamino)ethyl]-3-(2-naphthylsulfonyl)-1,3-dihydro-2H-benzimidazol-2-one]"
11,0.02,"O=c1n(C2CCNCC2)c2ccccc2n1S(=O)(=O)c1ccc2ccccc2c1 [Example 22, 3-(Naphth-2-ylsulfonyl)-1-piperidin-4-yl-1,3-dihydrobenzimidazol-2-one]"
12,0.015,"O=c1n(C2=CCNCC2)c2ccccc2n1S(=O)(=O)c1cc(Cl)c(Cl)s1 [Example 42, 1-[(4,5-dichlorothien-2-yl)sulfonyl]-3-(1,2,3,6-tetrahydropyridin-4-yl)-1,3-dihydro-2H-benzimidazol-2-one]"
13,0.02,"O=c1n(C2CCNCC2)c2ccccc2n1S(=O)(=O)c1ccc(Cl)s1 [Example 23, 1-[(5-chlorothien-2-yl)sulfonyl]-3-piperidin-4-yl-1,3-dihydro-2H-benzimidazol-2-one]"
14,0.005,"O=c1n(C2CCNCC2)c2ccccc2n1S(=O)(=O)c1ccc(Br)s1 [Example 24, 1-[(5-bromothien-2-yl)sulfonyl]-3-piperidin-4-yl-1,3-dihydro-2H-benzimidazol-2-one]"
15,0.042,"O=c1n(C2CCNCC2)c2ccccc2n1S(=O)(=O)c1c(Cl)sc(Cl)c1Br [Example 30, 1-[(4-bromo-2,5-dichlorothien-3-yl)sulfonyl]-3-piperidin-4-yl-1,3-dihydro-2H-benzimidazol-2-one]"
16,0.077,"O=c1n(C2CCNCC2)c2ccccc2n1S(=O)(=O)c1c(Cl)nc2ccccn12 [Example 34, 1-[(2-chloroimidazo[1,2-a]pyridin-3-yl)sulfonyl]-3-piperidin-4-yl-1,3-dihydro-2H-benzimidazol-2-one]"

row,Ki [µM],Compound
1,0.018,"1-[(2,6-dichloroimidazo[2,1-b][1,3]thiazol-5-yl)sulfonyl]-3-(1,2,3,6-tetrahydropyridin-4-yl)-1,3-dihydro-2H-benzimidazol-2-one [Example 50]"
2,0.02,"CN(C)CCn1c(=O)n(S(=O)(=O)c2c(Cl)nc3sccn23)c2ccccc21 [Example 5, 1-[(6-chloroimidazo[2,1-b][1,3]thiazol-5-yl)sulfonyl]-3-[2-(dimethylamino)ethyl]-1,3-dihydro-2H-benzimidazol-2-one]"
3,0.023,"O=c1n(C2CCNCC2)c2ccccc2n1S(=O)(=O)c1c(Cl)nc2sc(Cl)cn12 [Example 33, 1-[(2,6-dichloroimidazo[2,1-b][1,3]thiazol-5-yl)sulfonyl]-3-piperidin-4-yl-1,3-dihydro-2H-benzimidazol-2-one]"
4,0.012,"O=c1n(C2=CCNCC2)c2ccccc2n1S(=O)(=O)c1cccc2nsnc12 [Example 55, 1-(2,1,3-benzothiadiazol-4-ylsulfonyl)-3-(1,2,3,6-tetrahydropyridin-4-yl)-1,3-dihydro-2H-benzimidazol-2-one]"
5,0.006,"O=c1n(C2=CCNCC2)c2ccccc2n1S(=O)(=O)c1ccc2ccccc2c1 [Example 39, 1-(2-naphthylsulfonyl)-3-(1,2,3,6-tetrahydropyridin-4-yl)-1,3-dihydro-2H-benzimidazol-2-one]"
6,0.028,"Cc1nn(C)c(Cl)c1S(=O)(=O)n1c(=O)n(C2=CCNCC2)c2ccccc21 [Example 53, 1-[(5-chloro-1,3-dimethyl-1H-pyrazol-4-yl)sulfonyl]-3-(1,2,3,6-tetrahydropyridin-4-yl)-1,3-dihydro-2H-benzimidazol-2-one]"
7,0.043,"CN(C)CCn1c(=O)n(S(=O)(=O)c2ccc(Cl)s2)c2ccccc21 [Example 4, 1-[(5-Chlorothien-2-yl)sulfonyl]-3-[2-(dimethylamino)ethyl]-1,3-dihydro-2H-benzimidazol-2-one]"
8,0.004,"O=c1n(C2=CCNCC2)c2ccccc2n1S(=O)(=O)c1ccc(Br)s1 [Example 41, 1-[(5-bromothien-2-yl)sulfonyl]-3-(1,2,3,6-tetrahydropyridin-4-yl)-1,3-dihydro-2H-benzimidazol-2-one]"
9,0.046,"O=c1n(C2CCNCC2)c2ccccc2n1S(=O)(=O)c1c(Cl)nc2sccn12 [Example 32, 1-[(6-chloroimidazo[2,1-b][1,3]thiazol-5-yl)sulfonyl]-3-piperidin-4-yl-1,3-dihydro-2H-benzimidazol-2-one]"
10,0.01,"O=c1n(C2=CCNCC2)c2ccccc2n1S(=O)(=O)c1sc(Cl)cc1Br [Example 45, 1-[(3-bromo-5-chlorothien-2-yl)sulfonyl]-3-(1,2,3,6-tetrahydropyridin-4-yl)-1,3-dihydro-2H-benzimidazol-2-one]"
11,0.006,"NCCn1c(=O)n(S(=O)(=O)c2c(Cl)nc3sccn23)c2ccccc21 [Example 18, 1-(2-aminoethyl)-3-[(6-chloroimidazo[2,1-b][1,3]thiazol-5-yl)sulfonyl]-1,3-dihydro-2H-benzimidazol-2-one]"
12,0.045,"O=c1n(C2CCNCC2)c2ccccc2n1S(=O)(=O)c1cccc2nsnc12 [Example 38, 1-[(2,1,3-benzothiadiazol-4-yl)sulfonyl]-3-piperidin-4-yl-1,3-dihydro-2H-benzimidazol-2-one]"
13,0.04,"CN(C)CCn1c(=O)n(S(=O)(=O)c2ccc(Br)s2)c2ccccc21 [Example 10, 1-[(5-bromothien-2-yl)sulfonyl]-3-[2-(dimethylamino)ethyl]-1,3-dihydro-2H-benzimidazol-2-one]"
14,0.02,"O=c1n(C2CCNCC2)c2ccccc2n1S(=O)(=O)c1cc(Br)c(Cl)s1 [Example 29, 1-[(4-bromo-5-chlorothien-2-yl)sulfonyl]-3-piperidin-4-yl-1,3-dihydro-2H-benzimidazol-2-one]"
15,0.032,"O=c1n(C2CCNCC2)c2ccccc2n1S(=O)(=O)c1cc(Cl)c(Cl)s1 [Example 25, 1-[(4,5-dichlorothien-2-yl)sulfonyl]-3-piperidin-4-yl-1,3-dihydro-2H-benzimidazol-2-one]"
16,0.009,"O=c1n(C2=CCNCC2)c2ccccc2n1S(=O)(=O)c1cc(Cl)sc1Cl [Example 43, 1-[(2,5-dichlorothien-3-yl)sulfonyl]-3-(1,2,3,6-tetrahydropyridin-4-yl)-1,3-dihydro-2H-benzimidazol-2-one]"
